Assay results as given in patent US6229016A, “Method for treating tumors using 2-aryl-naphthyridin-4-ones” (priority 2000, dated 2001).
Like-named read-outs stand apart in the source and are kept apart here.

Assays:
tubulin = assay: Tubulin polymerization assay; type: biochemical, bovine
Procedure: Electrophoretically homogeneous bovine brain tubulin was purified as described in E. Hamel, et al. Biochemistry 23:4173 (1984).
The tubulin polymerization assay was performed as described in S. Kuo, et al. J. Med. Chem. 36:1146 (1993); L. Li, et al. J. Med. Chem. 37:1126 (1994); and L. Li J. Med. Chem. 37:3400 (1994). In brief, tubulin at 1.2 mg/ml (12 μM) was preincubated for 15 min at 26° C. in a 0.24-ml volume of 0.8 M monosodium glutamate (pH 6.6 with NaOH in a 2 M stock solution) with varying drug concentrations. The drug stock solutions were in DMSO, and the final solvent concentration was 4 % (v/v). All concentrations are in terms of the final reaction volume (0.25 ml). The reaction mixtures were chilled on ice, and 10 μl of 10 mM GTP was added to each reaction mixture. Samples were transferred to cuvettes held at 0° C. by an electronic temperature controller in Gilford spectrophotometers. Baselines were established at 350 nm, and polymerization initiated by a temperature jump to 26° C. The jump took about 50 sec to complete. After 20 min, turbidity readings were recorded, and the temperature controller was set to 0C. When depolymerization was complete, turbidity readings were again recorded. […] IC50 values were obtained graphically from inhibition of polymerization by different drug concentrations.
Electrophoretically, homogeneous bovine brain tubulin was purified as described in Example 6.
The tubulin polymerization assay was performed as described in Example 6.

[1] = system: U-251 CNS cancer cell line; assay: NCI in vitro screen, CNS cancer U-251; type: cell-based; conditions: Homo sapiens, read-out: Cytotoxicity log GI50 (converted)
[2] = system: NCI's 60 human tumor cell line; assay: NCI 60 human tumor cell line in vitro screen (average / whole panel); type: cell-based; conditions: calculated from all cell lines tested, molar concentrations, read-out: average log GI50 (converted)
[3] = system: PC-3 prostate cancer cell line; assay: NCI in vitro screen, prostate cancer PC-3; type: cell-based; conditions: Homo sapiens, read-out: Cytotoxicity log GI50 (converted)
Description: (§1) Compounds 41-51 and 53-68 were submitted to NCI and assayed in the NCI's in vitro disease-oriented antitumor screen, which involves determination of a test compound's effects on the growth of approximately 60 human tumor cell lines. See, M. R. Boyd, et al. In Cancer: Principles and Practice of Oncology Updates; De Vita, V. T., Hellman, S., Rosenberg, S. A., Eds; J. B. Lippincoft: Philadelphia, pp 1-12 (1989); and A. Monks, et al. J. Natl. Cancer Inst. 83:757 (1991). These lines include leukemia, non-small cell lung, colon, central nervous system (CNS), melanoma, ovarian, renal, prostate, and breast cancers.
(§2) Compounds 29'-51' were submitted to NCI and assayed in the NCI's in vitro disease-oriented antitumor screen, using the techniques described in Example 5. This assay involves determinations of a test agent's effect on growth parameters against a panel of approximately 60 human tumor cell lines, derived largely from solid tumors, including non-small cell lung, colon, central nervous system, renal, ovarian, prostate, and breast cancers, plus a few leukemia cell lines. The cytotoxic effects of each compound are obtained as GI50 or […] values, which represent the molar drug concentrations required to cause half growth inhibition and total growth inhibition, respectively. The results are expressed for each cell line as average log GI50 values in Table 4, as log GI50 values in Table 5, and as log TGI values and average log TGI values in Table 6.

[4] = system: MDA-MB-435 breast cancer cell line; assay: NCI in vitro screen, breast cancer MDA-MB-435; type: cell-based; conditions: Homo sapiens, read-out: Cytotoxicity log GI50 (converted)
[5] = system: SK-MEL-5 melanoma cell line; assay: NCI in vitro screen, melanoma SK-MEL-5; type: cell-based; conditions: Homo sapiens, read-out: Cytotoxicity log GI50 (converted)
Description: as §1, §2

[6] = system: OVCAR-3 ovarian cancer cell line; assay: NCI in vitro screen, ovarian cancer OVCAR-3; type: cell-based; conditions: Homo sapiens, read-out: Cytotoxicity log GI50 (converted)
[7] = system: NCI-H460 non-small cell lung cancer cell line; assay: NCI in vitro screen, non-small cell lung cancer NCI-H460; type: cell-based; conditions: Homo sapiens, read-out: Cytotoxicity log GI50 (converted)
[8] = system: HL-60(TB) leukemia cell line; assay: cells; type: cell-based; conditions: Homo sapiens; HL-60(TB); read-out: Cytotoxicity log GI50 (converted)
[9] = system: SF-295 CNS cancer cell line; assay: NCI in vitro screen, CNS cancer SF-295; type: cell-based; conditions: Homo sapiens, read-out: Cytotoxicity log GI50 (converted)
[10] = system: 786-0 renal cancer cell line; assay: NCI in vitro screen, renal cancer 786-0; type: cell-based; conditions: Homo sapiens, read-out: Cytotoxicity log GI50 (converted)
Description: as §1, §2

[11] = system: MDA-N breast cancer cell line; assay: NCI in vitro screen, breast cancer MDA-N; type: cell-based; conditions: Homo sapiens, read-out: Cytotoxicity log GI50 (converted)
Description: as §1, §2

[12] = system: HCT-116 colon cancer cell line; assay: NCI in vitro screen, colon cancer HCT-116; type: cell-based; conditions: Homo sapiens; HCT-1.16 (head); HCT-116 (footnote); read-out: Cytotoxicity log GI50 (converted)
[13] = Tables 1 and 4, read-out: ITP HC50 ± SD (Inhibition of Tubulin Polymerization)
[14] = read-out: IC50, inhibition of tubulin polymerization

| Structure (SMILES) | IC50 (tubulin; [13]) [µM] | IC50 (tubulin; [14]) [µM] | GI50 [1] [µM] | GI50 [2] [µM] | GI50 [3] [µM] | GI50 [4] [µM] | GI50 [5] [µM] | GI50 [6] [µM] | GI50 [7] [µM] | GI50 [8] [µM] | GI50 [9] [µM] | GI50 [10] [µM] | GI50 [11] [µM] | GI50 [12] [µM] |
| --- | --- | --- | --- | --- | --- | --- | --- | --- | --- | --- | --- | --- | --- | --- |
| Cc1cc(C)c2c(n1)N=C(c1ccc(F)cc1)CC2=O [Compound 60, 2-(4'-Fluorophenyl)-5,7-dimethyl-1,8-naphthyridin-4-one] | > 40 | > 40 | 95.5 | 40.7 | 30.2 | 18.6 | 26.3 | 43.7 | 51.3 | 15.5 | 50.1 | 79.4 | 25.1 | 50.1 |
| O=C1CC(c2ccc(F)cc2)=Nc2ncc(Cl)cc21 [Compound 61, 2-(4'-Fluorophenyl)-6-chloro-1,8-naphthyridin-4-one] | 16 ± 3 | 11 to 32 | 29.5 | 21.9 | 21.9 | 2.57 | 6.61 | 17.4 | 30.2 | 3.89 | 21.4 | 32.4 | 2.95 | 17 |
| O=C1CC(c2ccc(Cl)cc2)=Nc2ncccc21 [Compound 62, 2-(4'-Chlorophenyl)-1,8-naphthyridin-4-one] | 22 ± 0.1 | 11 to 32 | 39.8 | 38.9 | 47.9 | 5.89 | 28.8 | 23.4 | 38 | 16.6 | 40.7 | 33.9 | 8.32 | 32.4 |
| Cc1ccnc2c1C(=O)CC(c1ccc(Cl)cc1)=N2 [Compound 63, 2-(4'-Chlorophenyl)-5-methyl-1,8-naphthyridin-4-one] | 4.8 ± 1.4 | 1.5 to 9.8 | 4.57 | 5.13 | 2.88 | 0.759 | 3.47 | 3.16 | 3.72 | 1.78 | 5.37 | 3.98 | 1.32 | 3.72 |
| Cc1cnc2c(c1)C(=O)CC(c1ccc(Cl)cc1)=N2 [Compound 64, 2-(4'-Chlorophenyl)-6-methyl-1,8-naphthyridin-4-one] | 2 ± 0.01 | 1.5 to 9.8 | 3.02 | 3.72 | 1.15 | 0.603 | 2.19 | 2.24 | 3.89 | 2.24 | 2.4 | 6.31 | 0.562 | 2.82 |
| Cc1ccc2c(n1)N=C(c1ccc(Cl)cc1)CC2=O [Compound 65, 2-(4'-Chlorophenyl)-7-methyl-1,8-naphthyridin-4-one] | 11 ± 0.7 | 11 to 32 | 4.79 | 4.9 | 1.66 | 0.912 | 4.37 | 2.57 | 4.47 | 2.95 | 4.57 | 6.31 | 1 | 3.31 |
| Cc1cc(C)c2c(n1)N=C(c1ccc(Cl)cc1)CC2=O [Compound 66, 2-(4'-Chlorophenyl)-5,7-dimethyl-1 ,8-naphthyridin-4-one] | 32 ± 8 | 11 to 32 | 30.2 | 19.5 | 6.31 | 4.07 | 14.1 | 18.2 | 22.4 | 25.1 | 16.2 | 21.4 | 3.63 | 14.8 |
